The values below come from patent US7771978B2, “β1,4mannosyltransferases” (priority 2003, dated 2010).

In experiment [1] the target is T1, Egghead β1-4-mannosyltransferase (Drosophila melanogaster, UniProt O01346).
T1 construct: a secreted version of egghead was prepared as described for the full length construct; made in house; host or cells: baculovirus-infected Sf9 and High Five insect cells (microsomal fractions)
T1 sequence (O01346 1-457): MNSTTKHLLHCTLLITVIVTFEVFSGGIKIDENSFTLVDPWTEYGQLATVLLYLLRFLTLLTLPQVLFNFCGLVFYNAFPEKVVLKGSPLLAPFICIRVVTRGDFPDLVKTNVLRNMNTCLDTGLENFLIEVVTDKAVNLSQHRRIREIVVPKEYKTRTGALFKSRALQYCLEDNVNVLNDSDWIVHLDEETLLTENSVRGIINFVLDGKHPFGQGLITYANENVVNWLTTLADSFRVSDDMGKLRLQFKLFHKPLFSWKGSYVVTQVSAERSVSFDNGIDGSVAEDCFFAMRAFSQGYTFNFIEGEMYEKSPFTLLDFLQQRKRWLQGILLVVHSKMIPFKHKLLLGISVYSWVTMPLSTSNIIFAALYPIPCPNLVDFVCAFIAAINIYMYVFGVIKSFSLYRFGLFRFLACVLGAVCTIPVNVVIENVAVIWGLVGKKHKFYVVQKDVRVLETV
Briefly: Egghead transfer of Man to glycosphingolipid acceptors (thin-layer chromatography/autoradiography). It is filed as biochemical. Particulars: GDP-Man donor; microsomal fraction; 4 h. The procedure:
Microsomal fraction of egghead (Egh) and GalNAc-T4 (GT4) were incubated with Glcβ1-1Cer, LacCer, or no glycolipid and GDP-Man as described in Experimental Procedures. Autoradiography of thin-layer chromatography of reaction products (4 h). Plate was run in chloroform-methanol-water (60/38/10, v/v/v). Migration of standard glycolipids is indicated with arrows.
Glycosphingolipids of the fruit fly are based on the arthroseries GlcNAcβ1-3Manβ1-4Glcβ1-1 Cer core. […] Evidence in support hereof was provided by showing that brainiac utilizes the product formed by egghead (FIG. 5). This assay was carried out with n-octyl-β-Glc as initial acceptor substrate because it served as a better substrate than GlcCer under the assay conditions used.
An expression construct of the full coding region of egghead was prepared by RT-PCR using D. melanogaster mRNA and the sense primer Egh001 (5′-[…]-3′, SEQ ID NO: 4) with a BglII restriction site and the anti-sense primer Egh002 (5′-[…]-3′, SEQ ID NO: 5) with a XbaI restriction site. The resulting 1.1 Kb fragment was cloned into the BglII/XbaI sites of pVL1393 (PharMingen) and pVL1393-MYC. Furthermore an expression construct for a secreted version of egghead was prepared as described for the full length construct but using sense primer Egh003 (5′[…]-3′, SEQ ID NO: 6) with a BglII restriction site and the anti-sense primer Egh002. The resulting 1 Kb fragment was cloned into pAcGP67 Baculo-virus expression vector. Expression constructs pVL-egghead-full and pVL-egghead-Myc-full and pAcGP67-egghead-sol were co-transfected with Baculo-Gold™ DNA (Pharmingen) in Sf9 cells as described (12). […] Pellets were used at 10 mg/ml (Protein concentration determined by BCA, Pierce). Reaction products of soluble acceptors were quantified by chromatography on Dowex AG1-X8 (Sigma). Assays with glycosphingolipids included 5 mM 2-Acetamido-2-deoxy-D-Glucono-1,5-lactone (inhibitor of hexosaminidase activity), and products were purified on octadecyl-silica cartridges (Supelco) and analyzed by high performance thin-layer chromatography followed by autoradiography.

The target in experiment [2] is T1, Egghead β1-4-mannosyltransferase. Nature of the experiment: Egghead mannosyltransferase enzyme assay with soluble acceptor and donor substrates (microsomal fractions). It is filed as biochemical. Particulars: microsomal membranes. On the procedure:
Initial assays of activity included a screen with high concentrations of monosaccharide substrates and different donor substrates.
An expression construct of the full coding region of egghead was prepared by RT-PCR using D. melanogaster mRNA and the sense primer Egh001 (5′-[…]-3′, SEQ ID NO: 4) with a BglII restriction site and the anti-sense primer Egh002 (5′-[…]-3′, SEQ ID NO: 5) with a XbaI restriction site. The resulting 1.1 Kb fragment was cloned into the BglII/XbaI sites of pVL1393 (PharMingen) and pVL1393-MYC. Furthermore an expression construct for a secreted version of egghead was prepared as described for the full length construct but using sense primer Egh003 (5′[…]-3′, SEQ ID NO: 6) with a BglII restriction site and the anti-sense primer Egh002. The resulting 1 Kb fragment was cloned into pAcGP67 Baculo-virus expression vector. Expression constructs pVL-egghead-full and pVL-egghead-Myc-full and pAcGP67-egghead-sol were co-transfected with Baculo-Gold™ DNA (Pharmingen) in Sf9 cells as described (12). Control constructs included pVL-GalNAc-T4-full (8) and pVL-brainiac-full (7). Standard enzyme assays were performed in 50 μl reaction mixtures containing 25 mM HEPES-KOH (pH 7.4), 10 mM MgCl2, 0.1% n-octylgalactoside (Sigma), and 100 μM GDP-[^14C]-Man (2,000 cpm/nmol) (Amersham), and varying concentration of acceptor substrates (purchased from Fluka, Merck, Sigma and Toronto Research Chemicals Inc; see Table I for structures). Assays with brainiac were carried out in the same reaction mixture except for addition of UDP-[^14C]GlcNAc (3,000 cpm/nmol) (Amersham) and MnCl2. Enzyme sources were microsomal fractions of baculo-virus infected Sf9 and High Five™ cells prepared essentially as described by Weis et al. (1998). Briefly, cells were lysed in lysis buffer (25 mM Tris-HCl pH 7.4, 250 mM Sucrose), after incubation 30 min on ice cells were homogenized and lysate centrifuged at 1000×G. Glycerol were added to 20% and membrane pellets were obtained by 100.000×g. Pellets were used at 10 mg/ml (Protein concentration determined by BCA, Pierce). Reaction products of soluble acceptors were quantified by chromatography on Dowex AG1-X8 (Sigma). Assays with glycosphingolipids included 5 mM 2-Acetamido-2-deoxy-D-Glucono-1,5-lactone (inhibitor of hexosaminidase activity), and products were purified on octadecyl-silica cartridges (Supelco) and analyzed by high performance thin-layer chromatography followed by autoradiography.

Take Galβ1-1Cer: the “glycosphingolipid as acceptor substrate of egghead (in words)” value (“glycosphingolipid as acceptor substrate” for short) in experiment [1] is listed as “not to serve as a substrate”.
Take Galβ1-4Glcβ1-Cer [LacCer]: in experiment [1], the “glycosphingolipid as acceptor substrate” value is given as “does not serve as substrate”.
For the molecule Glcβ1-1Cer, in experiment [1], the “glycosphingolipid as acceptor substrate” value is “utilizes”.

B1: egghead: GDP-D-mannose: β-D-glucose-R 4-β-D-mannosyltransferase, SEQ ID NO. 1 (protein)
chain: T1 sequence (O01346 1-457)
modifications: Drosophila melanogaster
Take B1: the “pH optimum of egghead activity” value in experiment [2] is 7-8 pH.
